From PMC6266276 (Viruses, 2018)
Several values for one entry are separate records, joined by “and”; a condition that tells them apart may be missing. Equal values may be shown once. Entries after “also recorded” stand apart in the source; their conditions may differ. Read-outs that look alike come from different tables or passages of the source.

Experiments:
[1] = system: phosphorylated eIF4E (p-eIF4E); assay type: cell-based
[2] = system: porcine epidemic diarrhea virus (PEDV); assay: microbe, parasite or virus in culture; assay type: cell-based, porcine epidemic diarrhea virus (PEDV) strain CV777; conditions: for IC50: Porcine epidemic diarrhea virus, Vero, read-out: IC50, half maximal inhibitory concentration
[3] = pig, in vivo
[4] = system: bovine viral diarrhea virus (BVDV); conditions: HHT at concentrations below 2 µM ref 52; cited from earlier work
[5] = system: avian influenza virus (AIV); design: species or system avian influenza virus (AIV) strain H9-WD; conditions: in vivo
pseudorabies virus (PRV) = assay type: cell-based, pseudorabies virus (PRV) strain Fa
in vitro [6] = conditions: human
[7] = chicken, in vivo
[8] = system: Newcastle disease virus (NDV); design: species or system Newcastle disease virus (NDV) strain NA-1; conditions: in vivo, 0.2 mg/kg
[9] = system: herpes simplex virus type 1 (HSV-1); assay: microbe, parasite or virus in culture; assay type: cell-based, herpes simplex virus type 1 (HSV-1) strain F
chikungunya virus = conditions: HHT at 1 µM ref 38; cited from earlier work
[10] = system: Newcastle disease virus (NDV); design: species or system Newcastle disease virus (NDV) strain NA-1; conditions: in vivo
[11] = system: mouse hepatitis coronavirus (MHV); conditions: HHT at 125 nM ref 53; cited from earlier work
[12] = system: Newcastle disease virus (NDV); assay: microbe, parasite or virus in culture; assay type: cell-based, Newcastle disease virus (NDV) strain NA-1; conditions: for IC50: read-out: IC50, half maximal inhibitory concentration
[13] = mouse, in vivo
acute myeloid leukemia = conditions: mice, HHT 1.0 mg/kg ref 26; cited from earlier work
[14] = system: vesicular stomatitis virus (VSV); assay type: cell-based, vesicular stomatitis virus (VSV) strain Indiana
in vitro [15] = conditions: African green monkey
hepatitis B virus (HBV) = conditions: HHT at concentrations below 2 µM ref 52; cited from earlier work
[16] = system: porcine epidemic diarrhea virus (PEDV); design: species or system porcine epidemic diarrhea virus (PEDV) strain CV777; conditions: pig, in vivo
VSV = conditions: cited from earlier work

## Nc1ncnc2n[nH]c(Nc3ccc(F)cc3)c12 [CGP57380]
[1]
  cellular total eIF4E level: without an effect on total eIF4E protein level
  p-eIF4E levels: prevent the phosphorylation of eIF4E

## COC(=O)C[C@](O)(CCCC(C)(C)O)C(=O)O[C@@H]1C(OC)=C[C@]23CCCN2CCc2cc4c(cc2[C@H]13)OCO4 [HHT, homoharringtonine]
[2]
  PEDV-N levels, time-of-addition: strong reductions
  PEDV-N protein and mRNA levels: strong reduction
  SI, Selectivity index = CC50/IC50: 50
  concentration that completely inhibited infection: 500 nM
  infection rate, time-of-addition: less than 30%
  reduction of viral yields: 1.9 orders of magnitude
  viral yields: completely suppressed
  IC50: 0.112 µM
[3]
  50% toxicity dose: 0.2 mg/kg
[3]; 0.2 mg/kg
  animals for which side effects were fatal: about 50%
[4]
  antiviral efficacy on BVDV infection: no protective effects
[5]
  lung inflammation: decreased local inflammatory reaction but aggravated overall inflammation; also recorded: moderately attenuated inflammation
  number of AIV positive cells in lung: No obvious reduction
HeLa cells
  cell viability: No measurable decrease in cell viability
Vero cells
  cell viability: No measurable decrease in cell viability
Pseudorabies virus (PRV)
  PRV-gC level: strong reduction
  viral replication: strong reduction in viral replication
In vitro [6]
  CC50: 1.92 µM
[7]
  50% toxicity dose: 0.4 mg/kg
[8]
  mRNA level of NDV-NP in blood: significantly decreased
  mRNA level of NDV-NP in the liver and lung: significantly decreased
  pathological change in tissues and symptoms: did not exhibit a pathological change in tissues or symptoms; also recorded: survived without pathogenic changes in tissues and symptoms
[9]
  HSV-ICP8 level: strong reduction
  SI, Selectivity index = CC50/IC50: 40
  viral replication: strong reduction in viral replication
[9]; Human alphaherpesvirus 1, Vero, read-out: IC50, half maximal inhibitory concentration
  IC50: 0.139 µM
Chikungunya virus
  inhibition of viral yield: 2–3 orders of magnitude
[10]
  effect on viral infection in chicken embryos: slight effect; also recorded: completely inhibited viral infection
  reduction of HAU values: one and three
[11]
  inhibition of MHV in vitro: high-magnitude inhibition
[12]
  NDV-NP level: strong reduction
  SI, Selectivity index = CC50/IC50: 107
  concentration that completely inhibited infection: 100 nM
  morphology and number of HeLa cells compared to mock infected sample: no difference in morphology and number
  production of recombinant NDV expressing GFP: greatly reduced
[12]; avian paramyxovirus 1, HeLa, 24 h
  IC90: 0.04 µM
[12]; avian paramyxovirus 1, HeLa
  IC50: 0.018 µM
[13]
  inflammatory reaction in lung: No obvious inflammatory reaction
Acute myeloid leukemia
  acute myeloid leukemia in vivo: completely eradicate acute myeloid leukemia
[1]
  accumulation of Mcl-1: gradually reduced
  cellular total eIF4E level: unaffected
  p-eIF4E induced by ectopic expression of wild-type eIF4E: decreased the accumulation of p-eIF4E
  p-eIF4E levels: gradually reduced
  p-eIF4E levels induced by viral infection, in parallel with viral protein: gradually reduced
HEK293T cells
  cell viability: no measurable decrease in cell viability
[14]
  VSV-G levels, time-of-addition: strong reductions
  inhibitory effect against viral infection, pre-treatment: minimal inhibitory effect
  reduction of the viral yields, co-/post-treatment: complete reduction
  reduction of viral yields: 1.5 orders of magnitude
  viral protein G levels of VSV (VSV-G): strong reduction
  viral reduction: 6.5 orders of magnitude and 5 orders of magnitude
  viral yields: dramatically reduced
In vitro [15]
  CC50: 5.58 µM
Hepatitis B virus (HBV)
  antiviral efficacy on HBV DNA levels: no protective effects
[16]
  inhibitory activity and death: optimal inhibitory activity without death
[16]; 0.05 mg/kg
  pathological change in tissues and symptoms: survived without pathogenic changes in tissues and symptoms
[16]; 0.05 mg/kg/day
  mRNA levels of PEDV-N in blood: greatly decreaseed
  mRNA levels of PEDV-N in the intestine: greatly decreaseed

## O=c1c(O)c(-c2ccc(O)c(O)c2)oc2cc(O)cc(O)c12 [Quercetin]
[2]
  SI, Selectivity index = CC50/IC50: >145
  IC50: 6.9 µM
In vitro [15]
  CC50: > 1000 µM

## NC(=O)c1ncn([C@@H]2O[C@H](CO)[C@@H](O)[C@H]2O)n1 [Ribavirin]
In vitro [6]
  CC50: 2820 µM
VSV
  inhibition of VSV titer in cells: 2.5 orders of magnitude
[12]
  SI, Selectivity index = CC50/IC50: 64
[12]; avian paramyxovirus 1, HeLa
  IC50: 44.2 µM
[14]
  concentrations at which antiviral activity was displayed: over 100 µM
